The numbers were not newly measured in patent US20200114015A1, “Novel Alpha-Hydroxy Carboxylic Acid And Derivatives And Other GRAS- Based Prodrugs Of Gamma-Hydroxybutyrate (GHB) And Uses Thereof” (priority 2017, published 2020), which cites them from elsewhere.

For this data set the following is noted: GHB marketed as Xyrem.

For orientation: bioavailability means dose-corrected exposure relative to a reference, in per cent. On to `O=C(O)CCCO` [GHB, gamma-hydroxybutyrate], for which the bioavailability is listed as approximately 25% and the half life is 30 to 60 min.
